Assay results published in patent publication EP2253308A1, “Pharmaceutical composition comprising microbubbles for targeted tumor therapy” (Ludwig-Maximilians-Universität München, priority 2009, dated 2010).

Test system: 293/KDR human kidney carcinoma tissue cultures
Assay: In vitro anti-proliferative efficacy, cell viability assay (formazan absorption) with or without ultrasound
Format: cell-based
Details: effect not affected by the application of ultrasound; 24 hours incubation; % of untreated cells
Method: The anti-proliferative efficacy of doxorubicin-loaded microbubbles according to Example 2 was determined in an in vitro experiment using 293/KDR human kidney carcinoma tissue cultures.
First, the cells were cultivated in 10% fetal calf serum activated Dulbecco's Modified Eagle Medium. Prior to the experiment, the cells were brought in suspension by trypsin/EDTA solution. A cell suspension of 200 µl containing about 6 x 10^4 cells was transferred into each well of a 96-well plate (Greiner Bio-One GmbH, Germany) and subsequently admixed with an aqueous solution of either doxorubicin, doxorubicin-loaded liposomes, or doxorubicin-loaded microbubbles (n = 10). The corresponding blank samples were prepared without doxorubicin (see Figure 3). Ultrasound with a frequency of 1 MHz, an intensity of 2 W/cm^2, and a duty cycle of 50% was applied directly onto each well using Sonitron 2000 (Rich-Mar Inc., USA). In order to avoid the presence of standing waves, the well plate was under laid with an absorbing gel pad.
After 24 hours of incubation the cell metabolic activity was measured using a cell viability assay. […] Purple formazan produced by viable cells could be measured by its UV/Vis absorption using FluostarOmega plate reader (BMG Labtech GmbH, Offenburg, Germany) at a wavelength of 590 nm (measurement) and a wavelength of 630 nm (reference). […]

## COc1cccc2c1C(=O)c1c(O)c3c(c(O)c1C2=O)C[C@@](O)(C(=O)CO)C[C@@H]3O[C@H]1C[C@H](N)[C@H](O)[C@H](C)O1 [free doxorubicin]
  cell viability: 62-64%
